110 compounds from a melting point compilation (Tetko et al.) can be followed below.

`COC(=O)c1ccc(N)c(Br)c1`: the melting point was 104 to 108 °C.

`CC1=NN(c2ccc(C(=O)O)cc2)C(=O)C1`: the melting point fell in the range of 284 to 288 °C. The same measure for `O=c1c2ccccc2cc2c3ccccc3ccn12`: 147 °C; for `CC(=O)OC(=CC=C(OC(C)=O)c1ccccc1)c1ccccc1`: 174 to 176 °C; for `Nc1nn(-c2ccccc2)c2nc3ccccc3nc12`: 210 °C.

Compound `Cc1ccc(-c2csc(/C(C#N)=N/Nc3ccc(F)cc3)n2)cc1` gave a melting point of 196 °C. `CC(=O)N1CCc2cc(S(=O)(=O)Cl)ccc21` returned a melting point of 172 to 174 °C. The same measure for `CC/C=C\C/C=C\C/C=C\CCCCCCCC(=O)O`: -16.5 °C; for `CCOC(=O)c1c(N)sc(C)c1C`: 90 to 91 °C. The same measure for `Cc1ccc(N2CCCC2=O)cc1`: 86 to 88 °C; for `COc1ccc(C(O)c2ccc(OC)cc2)cc1`: 70 °C. The same measure for `COc1ccc(C)cc1`: -32 °C; for `Cn1nc(C(=O)Cl)cc1-c1cccs1`: 48 to 49 °C; for `CC(C)(C(=O)O)C(C)(C)C(=O)O`: 200 °C.

`O=C(O)CCC(=O)c1ccc2c(c1)OCCCO2` yielded a melting point of 149 to 151 °C. Under `COC(=O)c1scc(S(C)(=O)=O)c1N` stands 145 °C. The same measure for `COc1ccc(NCC(=O)Nc2ccc(OC)cc2)cc1`: 132 °C. The same measure for `Nc1ccc(S(=O)(=O)NCCO)cc1`: 97 to 99 °C; for `C/C(=N\NC(N)=O)C(=O)C(C)Cc1ccccc1` (stereo not given): 112 °C; for `ON=Cc1ccc[nH]1`: 165 °C. Take `O=S(=O)(Cl)C(Cl)(Cl)Cl`: the melting point is 140 °C. Under `Cc1ccc(C#N)cc1[N+](=O)[O-]` stands 106 °C; under `C[C@](N)(CO)C(=O)O`, 286 to 288 °C. `CSc1nc2[nH]c(=S)[nH]c(=O)c2n1C` gave a melting point of 289 to 290 °C. `Cc1cc(=O)oc2cc(OP(=O)(O)O)ccc12` returned a melting point of 210 °C. Under `CCSc1sc(C(=O)OC)c2c1C(=O)CC(C)(C)C2` stands 116 to 119 °C; under `CC(C)(C)C=O`, 6 °C. The same measure for `FC(F)C(F)(F)CBr`: below 25 °C; for `CCOC(=O)C(C(C)=O)C(=O)c1ccc(C(=O)C(C(C)=O)C(=O)OCC)cc1` (stereo not given): 99 °C. Under `O=C1c2ccccc2C(=O)c2c1ccc(O)c2O` stands 287 to 289 °C. As for `N#CCc1c(C#N)c(N)nc(Cl)c1C#N`, the melting point was in the range of 257 to 259 °C. The same measure for `N#CCc1c(Cl)cccc1Cl`: 76 °C; for `Brc1ccc(Oc2c(Br)c(Br)c(Br)c(Br)c2Br)cc1`: 184 °C. The same measure for `C#CC1(O)CCC2C3C(C)CC4=C(CCC(=O)C4)C3CCC21C` (stereo not given): 167 °C.

For `CCc1c(C)[nH]c2ccc(N(C)C)cc12`, the melting point was found to be 100 °C. The same measure for `O=C(Nc1ccc(Cl)c(Cl)c1)c1cc(Cl)ccc1O`: 247 °C.

Regarding `CC(Cc1ccccc1)NCCC(c1ccccc1)c1ccccc1` (stereo not given), the melting point came to 38 °C. `CC(C)OC(=O)c1cc(-c2nn(C)c(C(F)(F)F)c2Br)c(F)cc1Cl`: the melting point was 80 °C. Under `O=Cc1ccccc1OCC(=O)O` stands 133 °C; under `COc1ccc([N+](=O)[O-])c(I)c1`, 68 to 73 °C; under `C=C1C(=O)C23C4CC5C(C)(C=O)CCCC5(C(=O)O4)C2C(OC(C)=O)CC1C3O` (stereo not given), 209 °C. Under `CCOC(=O)C1=C(C)NC(=S)NC1c1ccccc1` (stereo not given) stands 207 to 209 °C; under `CC(=O)Oc1c(I)cc(I)cc1C(=O)Nc1ccc(Cl)cc1`, 216 °C; under `Cc1cc(C#N)cc(Cl)c1N`, 129 °C.

The compound `CCOP(=S)(S)OCC` displayed a melting point of -10 °C. Regarding `C=CC1CNCCC1CCC(=O)c1ccnc2ccc(OC)cc12` (stereo not given), the melting point was determined as 60 °C. The same measure for `Cn1c(/C(C#N)=N/Nc2ccc(Cl)cc2)nc2ccccc21`: 215 °C; for `CC(C)(C)NC(=O)C(C(F)(F)F)C(F)(F)F`: 201 °C. With `CC(C)OC(=O)C(C(=O)OC(C)C)=C1SCCS1`, the melting point came out at 54.9 °C.

As for `Nc1ccc(N)c(N)c1`, the melting point was 97.3 °C.

Consider `CN1C2CC3CC1C(O3)C2O` (stereo not given), for which the melting point was found to be 108 °C. In the case of `O=C(O)CN1CCOCCOCCN(CC(=O)O)CCOCCOCC1`, the melting point is 173 to 175 °C. For the compound `COc1cc2ccc(=O)oc2cc1O`, the melting point stood at 204 °C.

Take `Nc1ccc(C(C/C(=N/O)c2ccccc2)NO)cc1` (stereo not given): the melting point was in the range of 178 to 179 °C. Under `O=C(NCOC(=O)c1ccc(O)cc1)c1ccccc1` stands 165 to 166 °C; under `O=C(O)C=Cc1ccc(-c2ccc(F)cc2F)o1`, 218 to 220 °C. The same measure for `CNCc1ccc(-c2noc(C)n2)cc1`: 51 to 53 °C; for `Cc1ccc(C(=O)C=Cc2cccc([N+](=O)[O-])c2)cc1`: 134 to 137 °C; for `Cc1nc(-c2ccc(S(=O)(=O)Cl)s2)cs1`: 88 to 90 °C. `Brc1ccccc1COc1ccccc1` registered a melting point of 41 to 42 °C. The same measure for `CC1(C)CC(=O)OC(=O)C1`: 122 to 126 °C. Under `O=C=Nc1ccc2c(c1)CCO2` stands 42 to 43 °C; under `CCOC(=O)c1cnc2cc(C)nn2c1C`, 100 to 101 °C; under `Cc1oc(S(=O)(=O)N2CCCC2)cc1C(=O)O`, 185 °C. The same measure for `COc1ccc(C(C#N)C(C)=O)c(Cl)c1` (stereo not given): 79 °C; for `CC(C=CC=C(C)C=CC1=C(C)CC(O)CC1(C)C)=CC=CC=C(C)C=CC=C(C)C=CC1C(C)=CC(O)CC1(C)C` (stereo not given): 196 °C; for `COC(=O)C(C)(N)Cc1c[nH]c2ccccc12` (stereo not given): 139 to 142 °C.

On to `N#Cc1scc2c1OCCO2`, for which the melting point stood at 70 °C. Under `N#Cc1cn(C2CC2)c(=O)[nH]c1=O` stands 254 to 258 °C. The compound `O=C(c1ccc2ccccc2c1)c1noc(-c2ccc(Br)cc2)c1S(=O)(=O)c1ccccc1` returned a melting point of 173 °C. Under `Nc1ccc(I)cn1` stands 128 °C. `O=C(OCc1ccccc1Cl)ON1C(=O)CCC1=O` yielded a melting point of 103 to 105 °C. Under `Cc1nc(-c2ccccc2)c(C(=O)O)s1` stands 201 to 203 °C; under `Oc1ccc(OCc2ccccc2)cc1`, 122 °C; under `CC(CC(=O)O)C1CCC2C3CCC4CCCCC4(C)C3CCC12C` (stereo not given), 177 °C. Regarding `CN(C)C(=O)c1ccccc1`, the melting point amounted to 44 °C.

`COc1cccc(OCC(=O)O)c1`: the melting point is 118 °C. The same measure for `OCCc1cccc2ccccc12`: 62 °C. In the case of `Cc1cc(CCN2CCN(c3cccc(Cl)c3)CC2)n[nH]1`, the melting point amounted to 106 °C. The same measure for `O=C(Cl)/C=C/c1cccc(C(F)(F)F)c1`: 30 °C.

In the case of `Nc1cc(Cl)c(Cl)cc1N`, the melting point fell in the range of 162 to 163 °C. `O=[N+]([O-])c1ccnc(Cl)c1` yielded a melting point of 52 °C. Compound `COC(=O)[C@@H]1C[C@@H]2CCCN2[C@@]12C(=O)c1cccc3cccc2c13` yielded a melting point of 145 °C.

Compound `Clc1cc(Cl)c(Cl)c(I)c1` returned a melting point of 52 °C. Under `CC(C)(C)c1nc(N)nc(O)n1` stands 275 °C; under `Nc1c(Br)cc(C(F)(F)F)cc1Br`, 38 °C.

`C1CCCNCCC1`: the melting point turned out to be 29 °C.

The compound `Cn1nc(C(=O)Cl)c2ccccc21` registered a melting point of 126 °C. Under `COc1cc(CC2c3cc(OC)c(OC)cc3CCN2C)c(Oc2cc3c(cc2OC)-c2c(OC)c(OC)cc4c2C(C3)N(C)CC4)cc1OC` (stereo not given) stands 160 °C; under `OCC1OC(O)C(F)C(O)C1O` (stereo not given), 170 to 176 °C; under `CCCCCOc1ccc(/N=N/c2ccc(CCCC)cc2)cc1`, 40.5 to 43 °C. With `CC1(C)CC(=O)c2cc(-c3ccccc3)n(CCc3ccccc3)c2C1`, the melting point was 113 to 115 °C.

`O=C(Cl)c1csc(-c2ccccc2)n1` came in with a melting point of 100 °C. The same measure for `COc1ccc(-c2csc(/C(C#N)=N\Nc3ccc(C)cc3)n2)cc1`: 151 °C; for `O=[N+]([O-])c1cccnc1Sc1ccc(Cl)cc1`: 127 to 129 °C; for `CC1(C)CC(=O)CC(C)(C)C1`: 11 to 12 °C.

On to `COCC(=NOCC(=O)OC)c1cc(Oc2ccc(C(F)(F)F)cc2Cl)ccc1[N+](=O)[O-]`, for which the melting point stood at 58 °C. The same measure for `CCOC(=O)C1C(c2ccc(F)cc2)C(C(=O)OCC)C(O)(C(F)(F)F)NC1(O)C(F)(F)F` (stereo not given): 84 °C; for `Nc1nc(-c2ccc(Br)cc2)cs1`: 184 °C. The same measure for `Cc1ccc(S(=O)(=O)n2cc(C=CC(=O)O)c3ccccc32)cc1`: 238 to 241 °C. The same measure for `CC(=O)N(CC(O)CO)c1c(I)c(C(=O)NCC(O)CO)c(I)c(C(=O)NCC(O)CO)c1I` (stereo not given): 177 °C. As to `O=C(O)c1cc(O)ccc1O`, the melting point lay in the range of 204 to 207 °C. For the compound `Cc1nc(C)c(Cl)c(O)c1Cl`, the melting point stood at 320 °C.

As to `Nc1c(CN2CCCCCC2)c(=O)oc2ccccc12`, the melting point was 153 °C. The same measure for `COc1cc(NS(C)(=O)=O)ccc1Nc1c2ccccc2nc2ccccc12`: 235 °C; for `O=C(O)C(Br)C(Br)c1cccc(C(Br)C(Br)C(=O)O)c1` (stereo not given): 225 °C. In turn, `COC(=O)CC(=O)c1ccc(C(=O)OC)cc1` displayed a melting point of 81 to 86 °C. The same measure for `FC(F)(Cl)C(F)(Cl)Cl`: -35 °C; for `CC(C)NNC(=O)COc1ccc(Cl)cc1`: 93.5 °C. Compound `Cc1nc(N)nc(Cl)c1Cc1ccccc1` yielded a melting point of 195 to 196 °C.
